For test [1], the system named is farnesyl-protein transferase in white blood cells. Description: In vivo pharmacodynamic effects of farnesyl-protein transferase inhibitors in mammalian white blood cells. As to conditions: following a single administration of the compound. The protocol: In vivo pharmacodynamic effects of farnesyl-protein transferase inhibitors in mammalian white blood cells
The test mammal (beagle, Cynomolgus monkey, Rhesus monkey or African green monkey) is dosed by an IV, PO or suppository dose of a given concentration of drug in a suitable vehicle, such as IV:5% EtOH/citrate buffered saline, PO:50 mmol citric acid in water and suppository: 17.7% compound, 38% hydrous lactose; 44.3% PEG 8000.
Following drug dosing, the animals are bled at times t=0, 5 mins., 15 mins., 30 mins., 60 mins., 90 mins., 180 mins.(3 hours), 270 mins. (4.5 hours), 360 mins. (6 hours) and 1440 mins. (24 hours) by withdrawing 3 mL of blood into a sodium heparin vacutainer tube and placing the drawn blood immediately on ice. The vacutainer tubes are then spun at 2800 rpm in a table top centrifuge for 5 minutes at 4 degrees. Following the spin, the upper plasma layer is withdrawn from the vacutainer tube leaving an 1/8" of plasma on top of the blood pellet. The vacutainer tubes and plasma tubes are then put into dry ice for a quick freeze and once frozen, the samples are stored at -70° degrees.
For evaluation of the white blood cells, the frozen vacutainer tube is broken at the bottom utilizing a triangular metal file, and the frozen pellet of blood is removed (prior to breaking the tube it can warmed slightly in a 30° bath taking precautions not to melt the pellet). […]

For another test, the target named is T1, human FPTase (Homo sapiens, UniProt P49354+P49356).
T1 construct: made in house
Description: In vitro inhibition of human farnesyl-protein transferase ([3H]-FPP incorporation into Ras-CVIM). The class given is biochemical. As to conditions: 100 nM Ras-CVIM, 30 min, read-out: IC50, inhibitory activity against human FPTase.

Bounds are passed on as bounds.

As to `COc1ccccc1CN(CC(=O)N[C@@H](CCSC)C(=O)OC(C)C)C[C@@H]1CCCN1C(=O)CCc1c[nH]cn1` [Example 1, N-[1-(1H-Imidazol-4-propionyl)pyrrolidin-2(S)-ylmethyl]-N-(2-methoxybenzyl) glycyl-methionine isopropyl ester], the “inhibition of FPTase in white blood cells of mammals” value in test [1] is “sustained inhibition of FPTase in white blood cells”. The IC50 is the concentration that inhibits the measured activity by half. For `COc1ccccc1CN(CC(=O)N[C@@H](CCSC)C(=O)O)C[C@@H]1CCCN1C(=O)CCc1c[nH]cn1` [Example 2, N-[1-(1H-Imidazol-4-propionyl)pyrrolidin-2(S)-ylmethyl]-N-(2-methoxybenzyl)glycyl-methionine], the IC50 on human FPTase is less than 10 µM.

Values taken from patent US5703241A, “Inhibitor of farnesyl-protein transferase” (Merck & Co., Inc., priority 1996, dated 1997).
